The text below walks through data of PubChem BioAssay (NCI).

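48-hour exposure; five concentrations; linearly interpolated endpoints. The concentration for full growth arrest is given as TGI.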 Bounds are passed on as bounds.

Common to all, as to test: NCI anticancer screen, dose series, 48 h
The test system of experiment [1] is SN12C renal.
Experiment [2] concerns KM12 colon.
The test system of experiment [3] is SR leukemia.
For experiment [4], the system named is SF-295 CNS.
Experiment [5] deals with UO-31 renal.
Experiment [6] concerns SNB-19 CNS.
In experiment [7] the test system is SF-539 CNS.
In experiment [8] the test system is UACC-257 melanoma.
Experiment [9] concerns MCF7 breast.
Experiment [10] deals with U251 CNS.
Experiment [11] has as its system MDA-N.
Experiment [12] has as its system HCT-15 colon.
Experiment [13] relates to HT29 colon.
The subject of experiment [14] is IGROV1 ovarian.
Experiment [15] relates to HCC-2998 colon.
The subject of experiment [16] is HS 578T breast.

Turning to `O=C(c1ccc(Br)cc1)n1c2ccc(Br)cc2c2nc3ccccc3nc21`, the TGI in experiment [1], in experiment [2], in experiment [3], in experiment [4], in experiment [5] and in experiment [6] was greater than 100 µM in each case. Further, the TGI in [7], in experiment [8], in experiment [9], in experiment [10], in [11] and in [12] was greater than 100 µM in each case. The TGI in experiment [13], in experiment [14] and in [15] was greater than 100 µM each time.

Regarding `CCS(=O)(=O)CCn1cnc2c1c(=O)n(C)c(=O)n2C`, the TGI in experiment [1], in experiment [16], in experiment [2], in [4], in experiment [5] and in [6] was greater than 100 µM throughout. The TGI in [7], in [8], in [9], in experiment [10], in [11] and in [12] was greater than 100 µM each time. Besides, the TGI in experiment [13], in [14] and in [15] was greater than 100 µM throughout.

In the case of `CN(C)C(=O)Oc1ccc(-c2cn3cc(NC(=O)c4ccccc4)ccc3n2)cc1`, the TGI in experiment [1], in [2], in experiment [3], in [4], in experiment [5] and in experiment [6] was greater than 100 µM in each case. The TGI in experiment [7], in [8], in [9], in experiment [10], in experiment [11] and in experiment [12] was greater than 100 µM in each case. Further, the TGI in experiment [13], in experiment [14] and in experiment [15] was greater than 100 µM each time.

For `c1ccc(C[n+]2cccc(-c3cc4ccccc4[nH]3)c2)cc1`, the TGI in [1] is 42.6 µM; in experiment [16], greater than 100 µM; in experiment [2] it was 32 µM; in experiment [3], greater than 100 µM; in experiment [4] it was greater than 100 µM; in experiment [5], greater than 100 µM. In addition, the TGI is greater than 100 µM in experiment [6]; 32.3 µM in experiment [8]; 98.8 µM in [9]; greater than 100 µM in [10]; 37.6 µM in experiment [11]; greater than 100 µM in experiment [12]. The TGI in experiment [13] is greater than 100 µM; in [14], 42.6 µM.

Turning to `Nc1nc(Cl)c2nnn(CC3CCC(CO)C3)c2n1` (configuration not stated), the TGI in [1], in experiment [16], in [2], in experiment [4], in experiment [5] and in experiment [6] was greater than 100 µM in each case. Further, the TGI in [7], in experiment [8], in [9], in experiment [10], in experiment [11] and in experiment [12] was greater than 100 µM throughout. Also, in experiment [15], the TGI was greater than 100 µM.

Consider `O=C=NCCCCCCN1C(=O)N2C(c3ccccc3)N(CCCCCCN=C=O)C(=O)N2C1c1ccccc1` (configuration not stated), for which the TGI in experiment [1], in [2], in experiment [3], in experiment [4], in [5] and in experiment [6] was greater than 100 µM throughout. Also, the TGI in [7], in experiment [8], in experiment [9], in experiment [10], in experiment [11] and in experiment [12] was greater than 100 µM each time. Also, the TGI in experiment [13], in experiment [14] and in experiment [15] was greater than 100 µM in each case.

`O=C(O)c1oc(C(=O)O)c(C(=O)O)c1C(=O)O`: the TGI in [1], in experiment [16], in [2], in experiment [3], in experiment [4] and in experiment [5] was greater than 100 µM throughout. Also, the TGI in experiment [6], in experiment [8], in [10], in experiment [11], in [12] and in experiment [13] was greater than 100 µM each time. Moreover, the TGI in experiment [14] was greater than 100 µM.

As for `CC(C)NCCC(O)c1cc2ccccc2o1` (configuration not stated), the TGI in experiment [1], in experiment [16], in experiment [2], in experiment [4], in [5] and in experiment [6] was greater than 100 µM in each case. Moreover, the TGI in experiment [7], in [8], in [9], in experiment [10], in [11] and in [12] was greater than 100 µM throughout. In addition, the TGI in experiment [13] and in experiment [14] was greater than 100 µM throughout.

As to `Clc1nc2n(c1/C=C/c1cccs1)CCS2`, the TGI in [1], in experiment [16], in [2], in experiment [4], in experiment [5] and in experiment [6] was greater than 100 µM in each case. The TGI in experiment [8] was greater than 100 µM; in experiment [9], greater than 100 µM; in [10], greater than 100 µM; in experiment [11], greater than 100 µM; in experiment [12] it was greater than 100 µM; in [13] it was 96.6 µM. Moreover, the TGI in [14] and in [15] was greater than 100 µM throughout.

Consider `O=c1[nH]n(Cc2ccccn2)c2ccc([N+](=O)[O-])cc12`, for which the TGI in [1], in experiment [16], in experiment [2], in experiment [3], in experiment [5] and in experiment [6] was greater than 100 µM in each case. In addition, the TGI in [7], in experiment [8], in [10], in experiment [11], in experiment [12] and in [13] was greater than 100 µM each time. For the same compound, the TGI in experiment [14] and in [15] was greater than 100 µM throughout.
